Source: US9297017B2, “Methods and compositions for targeted protein degradation” (University of Washington, priority 2010, dated 2016)
Changes are numbered by the printed parent chain. Read-outs that look alike come from different tables or passages of the source.

Experiments:
full-length JAZ6 = molecular target: T1, full-length JAZ6 (Arabidopsis thaliana, UniProt Q9C9E3); experiment: Radioligand binding of 3H-coronatine to full-length JAZ6 alone
T1 construct: 6xHis; made in house; host or cells: Escherichia coli
T1 sequence (Q9C9E3 1-269): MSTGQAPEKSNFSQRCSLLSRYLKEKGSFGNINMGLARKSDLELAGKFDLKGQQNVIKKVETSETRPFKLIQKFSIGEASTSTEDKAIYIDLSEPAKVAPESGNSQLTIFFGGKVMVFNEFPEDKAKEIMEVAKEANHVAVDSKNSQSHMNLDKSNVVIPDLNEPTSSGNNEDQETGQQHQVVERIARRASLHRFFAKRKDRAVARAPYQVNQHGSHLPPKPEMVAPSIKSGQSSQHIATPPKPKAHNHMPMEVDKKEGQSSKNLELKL
Excerpt: (§1) (^3H)-labeled coronatine was synthesized by Amersham. Full-length Arabidopsis thaliana COI1 and ASK1 were co-expressed as a glutathione S-transferase (GST) fusion protein and an untagged protein, respectively, in Hi5 suspension insect cells. The COI1/ASK1 complex was isolated from the soluble cell lysate by glutathione affinity chromatography. After on-column tag cleavage by tobacco etch virus protease, the complex was further purified by anion exchange and gel filtration chromatography and concentrated by ultrafiltration to 12-18 mg ml^−1. Full-length JAZ substrate proteins were expressed as 6×His-fusion proteins in Escherichia coli and purified on Ni-NTA resin with subsequent dialysis into 20 mM Tris-HCl, pH 8.0, 200 mM NaCl, and 10% glycerol.
(§2) Radioligand binding was assayed on purified proteins, with 2 mg COI1/ASK1 complex and JAZ proteins at a 1:3 molar ratio. […] Nonspecific binding was determined in the presence of […] coronatine. Competition binding experiments were conducted with serial dilutions of JA-Ile in the presence of 100 nM ^3H coronatine with nonspecific binding determined in the presence of […] coronatine. Total binding was determined in the presence of vehicle only. Two-point binding experiments were performed in the presence of 100 nM or 300 nM ^3H-coronatine with nonspecific binding determined in the presence of 300 mM coronatine. […]

JAZ6F195A/COI1 = molecular target: T2, JAZ6F195A/COI1 (Arabidopsis thaliana, UniProt O04197+Q9C9E3, F195A); experiment: Binding of 3H-coronatine (300 nM) to JAZ6F195A/COI1; conditions: 300 nM 3H-coronatine
T2 construct: Full-length Arabidopsis thaliana COI1 and ASK1 were co-expressed; Full-length JAZ substrate proteins were expressed as 6×His-fusion proteins in Escherichia coli; GST (cleaved yes); 6xHis; made in house; host or cells: Hi5 insect cells (COI1/ASK1); Escherichia coli (JAZ6 F195A)
T2 sequence (O04197 1-592): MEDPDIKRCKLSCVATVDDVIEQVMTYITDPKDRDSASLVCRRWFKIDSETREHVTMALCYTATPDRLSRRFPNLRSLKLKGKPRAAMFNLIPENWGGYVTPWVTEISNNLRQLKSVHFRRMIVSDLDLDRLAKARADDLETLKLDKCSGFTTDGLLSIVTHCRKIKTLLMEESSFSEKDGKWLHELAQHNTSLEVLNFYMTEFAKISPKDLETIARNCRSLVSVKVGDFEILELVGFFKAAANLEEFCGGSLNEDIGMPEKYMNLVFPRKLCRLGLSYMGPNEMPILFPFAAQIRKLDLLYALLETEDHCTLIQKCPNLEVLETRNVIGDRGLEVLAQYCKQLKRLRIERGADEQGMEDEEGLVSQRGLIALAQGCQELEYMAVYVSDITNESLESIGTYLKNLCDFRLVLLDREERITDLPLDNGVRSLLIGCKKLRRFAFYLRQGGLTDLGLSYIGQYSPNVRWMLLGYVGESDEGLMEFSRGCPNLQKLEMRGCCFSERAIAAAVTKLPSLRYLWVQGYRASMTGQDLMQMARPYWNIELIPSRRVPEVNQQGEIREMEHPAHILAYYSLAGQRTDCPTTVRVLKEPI
T2 sequence (Q9C9E3 1-269 F195A): T1 sequence (Q9C9E3 1-269) with F195A
T2 sequence (Q39255 1-160 partner): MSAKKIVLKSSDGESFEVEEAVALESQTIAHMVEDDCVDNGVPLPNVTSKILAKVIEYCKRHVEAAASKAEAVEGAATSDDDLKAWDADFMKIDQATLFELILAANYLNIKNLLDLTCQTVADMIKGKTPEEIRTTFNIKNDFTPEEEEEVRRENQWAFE
Excerpt: as §1, §2

Q: Which results are given for CC[C@H]1C=C(C(=O)N[C@@]2(C(=O)O)C[C@@H]2CC)[C@H]2CCC(=O)[C@H]2C1 [coronatine]?
A: Binding affinity for JAZ6 alone (full-length JAZ6): minimal binding affinity; Binding affinity for JAZ6 alone (full-length JAZ6; listed as 3H-coronatine): no appreciable binding affinity; High affinity interaction with COI1/JAZ6 after mutation of the conserved phenylalanine to alanine (JAZ6F195A/COI1): abolish the high affinity interaction
